According to the supplement of paper PMC12350171:

What was measured:
[1] = tested on: Com21 synthetic gut community; assay: community biomass OD578 after 24 h drug treatment relative to untreated (fraction of untreated control); higher = more community growth; settings: community: Com21 (Com20 + E. coli ED1a)
Experimental: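 Com21 (Com20 plus E. coli ED1a) was treated with drug for 24 h under anaerobic conditions in mGAM. Community OD578 was then measured and normalised to untreated Com21; mean of 3 biological replicates.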

[2] = tested on: Streptococcus parasanguinis; assay: IC25 growth inhibition; higher = less potent
Outline: (§1)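 Overnight monocultures grown in mGAM were moved into pre-reduced plates containing twofold drug dilutions, at a starting OD578 of 0.01 with 1% DMSO (or water). Plates were kept anaerobic and read hourly at OD578 in a plate reader, with at least three biological replicates. For each concentration, the median area under the growth curve was made monotonic, and IC25 was the lowest concentration whose median fell below a cutoff, reported as a tested interval. That cutoff was 0.75.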

Roseburia intestinalis = assay: IC25 growth inhibition; higher = less potent
Outline: as §1

[3] = tested on: Clostridium saccharolyticum; assay: IC25 growth inhibition; higher = less potent
Outline: as §1

Bacteroides fragilis NT = assay: IC25 growth inhibition; higher = less potent
Outline: as §1

Dorea formicigenerans = assay: IC25 growth inhibition; higher = less potent
Outline: as §1

[4] = tested on: Salmonella enterica typhimurium; assay: IC25 growth inhibition; higher = less potent
Outline: as §1

Eubacterium rectale = assay: IC25 growth inhibition; higher = less potent
Outline: as §1

Ruminococcus gnavus = assay: IC25 growth inhibition; higher = less potent
Outline: as §1

Coprococcus comes = assay: IC25 growth inhibition; higher = less potent
Outline: as §1

Shigella flexneri = assay: IC25 growth inhibition; higher = less potent
Outline: as §1

Vibrio cholerae = assay: IC25 growth inhibition; higher = less potent
Outline: as §1

Escherichia coli ED1a = assay: IC25 growth inhibition; higher = less potent
Outline: as §1

Bacteroides uniformis = assay: IC25 growth inhibition; higher = less potent
Outline: as §1

[5] = tested on: Yersinia pseudotuberculosis; assay: IC25 growth inhibition; higher = less potent
Outline: as §1

Bacteroides vulgatus = assay: IC25 growth inhibition; higher = less potent
Outline: as §1

Clostridium perfringens = assay: IC25 growth inhibition; higher = less potent
Outline: as §1

Clostridium ramosum = assay: IC25 growth inhibition; higher = less potent
Outline: as §1

Clostridium bolteae = assay: IC25 growth inhibition; higher = less potent
Outline: as §1

[6] = tested on: Yersinia enterocolitica WA-314; assay: IC25 growth inhibition; higher = less potent
Outline: as §1

Parabacteroides merdae = assay: IC25 growth inhibition; higher = less potent
Outline: as §1

Collinsella aerofaciens = assay: IC25 growth inhibition; higher = less potent
Outline: as §1

[7] = tested on: Bacteroides thetaiotaomicron; assay: IC25 growth inhibition; higher = less potent
Outline: as §1

[8] = tested on: Fusobacterium nucleatum subsp. Nucleatum; assay: IC25 growth inhibition; higher = less potent
Outline: as §1

Streptococcus salivarius = assay: IC25 growth inhibition; higher = less potent
Outline: as §1

[9] = drug pretreatment concentration 10 µM
[10] = drug pretreatment concentration 20 µM
[11] = drug pretreatment concentration 40 µM
[12] = drug pretreatment concentration 80 µM
[13] = drug pretreatment concentration 160 µM
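For IC25 growth inhibition in this document: lowest concentration where monotonic median growth AUC falls below 0.75 of drug-free control.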

In the case of `Cc1c(OCC(F)(F)F)ccnc1C[S+]([O-])c1nc2ccccc2[nH]1` (stereo unspecified) [Lansoprazole], the “community biomass OD578” value [1, 9] is reported as 0.935, the “community biomass OD578” value [1, 10] is reported as 0.962 and the “community biomass OD578” value [1, 11] is reported as 0.952. For the same compound, the “community biomass OD578” value [1, 12] was 0.945, the “community biomass OD578” value [1, 13] was 0.926 and the IC25 growth inhibition [2] was greater than 160 µM. The IC25 growth inhibition (Roseburia intestinalis) was greater than 160 µM, the IC25 growth inhibition [3] was greater than 160 µM and the IC25 growth inhibition (Bacteroides fragilis NT) was greater than 160 µM. The IC25 growth inhibition (Dorea formicigenerans) was no more than 160 µM, the IC25 growth inhibition [4] was greater than 160 µM and the IC25 growth inhibition (Eubacterium rectale) was greater than 80 µM. It also gave an IC25 growth inhibition (Ruminococcus gnavus) greater than 160 µM, an IC25 growth inhibition (Coprococcus comes) greater than 160 µM and an IC25 growth inhibition (Shigella flexneri) greater than 160 µM. For the same compound, the IC25 growth inhibition (Vibrio cholerae) was greater than 160 µM, the IC25 growth inhibition (Escherichia coli ED1a) was greater than 160 µM and the IC25 growth inhibition (Bacteroides uniformis) was no more than 160 µM. The IC25 growth inhibition [5] was greater than 160 µM, the IC25 growth inhibition (Bacteroides vulgatus) was greater than 160 µM and the IC25 growth inhibition (Clostridium perfringens) was greater than 160 µM. For the same compound, the IC25 growth inhibition (Clostridium ramosum) was greater than 160 µM, the IC25 growth inhibition (Clostridium bolteae) was greater than 160 µM and the IC25 growth inhibition [6] was greater than 160 µM. It also gave an IC25 growth inhibition (Parabacteroides merdae) greater than 160 µM, an IC25 growth inhibition (Collinsella aerofaciens) of no more than 160 µM and an IC25 growth inhibition [7] greater than 160 µM. The IC25 growth inhibition [8] was greater than 160 µM and the IC25 growth inhibition (Streptococcus salivarius) was greater than 160 µM.

`CCOC(=O)N1CCC(=C2c3ccc(Cl)cc3CCc3cccnc32)CC1` [Loratadine] was tested, and the “community biomass OD578” value ([1]; drug pretreatment concentration 2.5 µM) was 1, the “community biomass OD578” value ([1]; drug pretreatment concentration 5 µM) was 1.01 and the “community biomass OD578” value [1, 9] was 1.02. For the same compound, the “community biomass OD578” value [1, 10] was 1.01, the “community biomass OD578” value [1, 11] was 0.941 and the IC25 growth inhibition [2] was greater than 160 µM. For the same compound, the IC25 growth inhibition (Roseburia intestinalis) was greater than 160 µM, the IC25 growth inhibition [3] was greater than 160 µM and the IC25 growth inhibition (Bacteroides fragilis NT) was greater than 160 µM. For the same compound, the IC25 growth inhibition (Dorea formicigenerans) was greater than 160 µM, the IC25 growth inhibition [4] was greater than 40 µM and the IC25 growth inhibition (Eubacterium rectale) was greater than 160 µM. For the same compound, the IC25 growth inhibition (Ruminococcus gnavus) was greater than 80 µM, the IC25 growth inhibition (Coprococcus comes) was greater than 40 µM and the IC25 growth inhibition (Shigella flexneri) was greater than 160 µM. It also gave an IC25 growth inhibition (Vibrio cholerae) greater than 160 µM, an IC25 growth inhibition (Escherichia coli ED1a) greater than 40 µM and an IC25 growth inhibition (Bacteroides uniformis) greater than 160 µM. The IC25 growth inhibition [5] was greater than 40 µM, the IC25 growth inhibition (Bacteroides vulgatus) was greater than 160 µM and the IC25 growth inhibition (Clostridium perfringens) was greater than 160 µM. The IC25 growth inhibition (Clostridium ramosum) was no more than 80 µM, the IC25 growth inhibition (Clostridium bolteae) was greater than 160 µM and the IC25 growth inhibition [6] was greater than 80 µM. It also gave an IC25 growth inhibition (Parabacteroides merdae) of no more than 40 µM, an IC25 growth inhibition (Collinsella aerofaciens) greater than 160 µM and an IC25 growth inhibition [7] greater than 160 µM. It also gave an IC25 growth inhibition [8] greater than 160 µM and an IC25 growth inhibition (Streptococcus salivarius) greater than 160 µM.

In the case of `CN1CCN(C2=Nc3ccccc3Oc3ccc(Cl)cc32)CC1` [Loxapine], the “community biomass OD578” value [1, 9] is reported as 0.993, the “community biomass OD578” value [1, 10] is reported as 0.996 and the “community biomass OD578” value [1, 11] is reported as 0.991. For the same compound, the “community biomass OD578” value [1, 12] was 0.987, the “community biomass OD578” value [1, 13] was 0.951 and the IC25 growth inhibition [2] was greater than 160 µM. The IC25 growth inhibition (Roseburia intestinalis) was no more than 160 µM, the IC25 growth inhibition [3] was greater than 160 µM and the IC25 growth inhibition (Bacteroides fragilis NT) was no more than 80 µM. It also gave an IC25 growth inhibition (Dorea formicigenerans) of no more than 160 µM, an IC25 growth inhibition [4] greater than 160 µM and an IC25 growth inhibition (Eubacterium rectale) of no more than 40 µM. It also gave an IC25 growth inhibition (Ruminococcus gnavus) of no more than 160 µM, an IC25 growth inhibition (Coprococcus comes) greater than 40 µM and an IC25 growth inhibition (Shigella flexneri) greater than 160 µM. For the same compound, the IC25 growth inhibition (Vibrio cholerae) was no more than 80 µM, the IC25 growth inhibition (Escherichia coli ED1a) was greater than 160 µM and the IC25 growth inhibition (Bacteroides uniformis) was no more than 160 µM. The IC25 growth inhibition [5] was greater than 160 µM, the IC25 growth inhibition (Bacteroides vulgatus) was no more than 10 µM and the IC25 growth inhibition (Clostridium perfringens) was no more than 160 µM. The IC25 growth inhibition (Clostridium ramosum) was greater than 160 µM, the IC25 growth inhibition (Clostridium bolteae) was greater than 160 µM and the IC25 growth inhibition [6] was greater than 160 µM. It also gave an IC25 growth inhibition (Parabacteroides merdae) of no more than 10 µM, an IC25 growth inhibition (Collinsella aerofaciens) greater than 160 µM and an IC25 growth inhibition [7] of no more than 40 µM. For the same compound, the IC25 growth inhibition [8] was no more than 160 µM and the IC25 growth inhibition (Streptococcus salivarius) was no more than 160 µM.

With `CN(C)C(=N)NC(=N)N` [Metformin] the “community biomass OD578” value [1, 9] was 1.02, the “community biomass OD578” value [1, 10] was 1.01 and the “community biomass OD578” value [1, 11] was 1.01. The “community biomass OD578” value [1, 12] was 1.02, the “community biomass OD578” value [1, 13] was 1.03 and the IC25 growth inhibition [2] was greater than 160 µM. The IC25 growth inhibition (Roseburia intestinalis) was greater than 160 µM, the IC25 growth inhibition [3] was greater than 160 µM and the IC25 growth inhibition (Bacteroides fragilis NT) was greater than 160 µM. It also gave an IC25 growth inhibition (Dorea formicigenerans) greater than 160 µM, an IC25 growth inhibition [4] greater than 160 µM and an IC25 growth inhibition (Eubacterium rectale) greater than 160 µM. The IC25 growth inhibition (Ruminococcus gnavus) was greater than 160 µM, the IC25 growth inhibition (Coprococcus comes) was greater than 160 µM and the IC25 growth inhibition (Shigella flexneri) was greater than 160 µM. It also gave an IC25 growth inhibition (Vibrio cholerae) greater than 160 µM, an IC25 growth inhibition (Escherichia coli ED1a) greater than 160 µM and an IC25 growth inhibition (Bacteroides uniformis) greater than 160 µM. For the same compound, the IC25 growth inhibition [5] was greater than 160 µM, the IC25 growth inhibition (Bacteroides vulgatus) was greater than 160 µM and the IC25 growth inhibition (Clostridium perfringens) was greater than 160 µM. The IC25 growth inhibition (Clostridium ramosum) was greater than 160 µM, the IC25 growth inhibition (Clostridium bolteae) was greater than 160 µM and the IC25 growth inhibition [6] was greater than 160 µM. For the same compound, the IC25 growth inhibition (Parabacteroides merdae) was greater than 160 µM, the IC25 growth inhibition (Collinsella aerofaciens) was greater than 160 µM and the IC25 growth inhibition [7] was greater than 160 µM. For the same compound, the IC25 growth inhibition [8] was greater than 160 µM and the IC25 growth inhibition (Streptococcus salivarius) was greater than 160 µM.
